# Article doi:10.1101/2023.03.24.534094v2 (biorxiv, 2023)
# Like-named read-outs stand apart in the source and are kept apart here.
# How the values were obtained:
# Experiment in all cases: biochemical
# MARK4 = target: T1, MARK4 (Homo sapiens, UniProt Q96L34)
# T1 sequence (Q96L34 1-752): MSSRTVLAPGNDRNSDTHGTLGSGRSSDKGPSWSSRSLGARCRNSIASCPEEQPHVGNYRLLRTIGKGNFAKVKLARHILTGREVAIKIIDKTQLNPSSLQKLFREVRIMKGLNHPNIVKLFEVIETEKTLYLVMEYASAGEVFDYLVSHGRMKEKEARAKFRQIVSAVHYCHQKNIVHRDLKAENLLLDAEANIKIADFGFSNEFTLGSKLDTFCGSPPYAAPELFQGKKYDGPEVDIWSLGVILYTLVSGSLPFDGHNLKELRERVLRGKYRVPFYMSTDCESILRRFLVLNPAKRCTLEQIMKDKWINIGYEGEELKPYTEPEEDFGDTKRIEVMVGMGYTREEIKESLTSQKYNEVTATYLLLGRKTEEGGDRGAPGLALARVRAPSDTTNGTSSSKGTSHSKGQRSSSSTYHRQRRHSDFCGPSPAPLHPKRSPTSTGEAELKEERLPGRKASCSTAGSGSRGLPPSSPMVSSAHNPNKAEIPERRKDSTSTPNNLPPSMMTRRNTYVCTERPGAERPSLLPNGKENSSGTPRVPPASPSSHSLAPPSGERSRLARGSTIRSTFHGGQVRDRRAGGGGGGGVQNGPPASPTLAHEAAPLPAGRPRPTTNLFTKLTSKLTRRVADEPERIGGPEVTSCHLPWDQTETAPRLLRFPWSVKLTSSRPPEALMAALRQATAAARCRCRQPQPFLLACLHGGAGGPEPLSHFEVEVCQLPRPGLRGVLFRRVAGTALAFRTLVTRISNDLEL
# MAP2K7 = target: T2, MAP2K7 (Homo sapiens, UniProt O14733)
# T2 sequence (O14733 1-419): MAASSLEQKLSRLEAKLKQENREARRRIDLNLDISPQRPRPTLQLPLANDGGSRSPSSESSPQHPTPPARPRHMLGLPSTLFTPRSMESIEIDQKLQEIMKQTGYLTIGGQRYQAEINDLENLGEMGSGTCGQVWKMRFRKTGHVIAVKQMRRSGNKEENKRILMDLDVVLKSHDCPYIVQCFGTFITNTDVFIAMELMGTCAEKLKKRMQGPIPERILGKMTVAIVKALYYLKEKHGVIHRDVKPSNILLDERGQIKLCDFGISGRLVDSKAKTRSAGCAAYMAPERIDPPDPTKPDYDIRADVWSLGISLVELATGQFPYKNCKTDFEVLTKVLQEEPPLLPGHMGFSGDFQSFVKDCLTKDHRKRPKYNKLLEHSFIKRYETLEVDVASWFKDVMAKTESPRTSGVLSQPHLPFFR
# NEK1 = target: T3, NEK1 (Homo sapiens, UniProt Q96PY6)
# T3 sequence (Q96PY6 1-1258): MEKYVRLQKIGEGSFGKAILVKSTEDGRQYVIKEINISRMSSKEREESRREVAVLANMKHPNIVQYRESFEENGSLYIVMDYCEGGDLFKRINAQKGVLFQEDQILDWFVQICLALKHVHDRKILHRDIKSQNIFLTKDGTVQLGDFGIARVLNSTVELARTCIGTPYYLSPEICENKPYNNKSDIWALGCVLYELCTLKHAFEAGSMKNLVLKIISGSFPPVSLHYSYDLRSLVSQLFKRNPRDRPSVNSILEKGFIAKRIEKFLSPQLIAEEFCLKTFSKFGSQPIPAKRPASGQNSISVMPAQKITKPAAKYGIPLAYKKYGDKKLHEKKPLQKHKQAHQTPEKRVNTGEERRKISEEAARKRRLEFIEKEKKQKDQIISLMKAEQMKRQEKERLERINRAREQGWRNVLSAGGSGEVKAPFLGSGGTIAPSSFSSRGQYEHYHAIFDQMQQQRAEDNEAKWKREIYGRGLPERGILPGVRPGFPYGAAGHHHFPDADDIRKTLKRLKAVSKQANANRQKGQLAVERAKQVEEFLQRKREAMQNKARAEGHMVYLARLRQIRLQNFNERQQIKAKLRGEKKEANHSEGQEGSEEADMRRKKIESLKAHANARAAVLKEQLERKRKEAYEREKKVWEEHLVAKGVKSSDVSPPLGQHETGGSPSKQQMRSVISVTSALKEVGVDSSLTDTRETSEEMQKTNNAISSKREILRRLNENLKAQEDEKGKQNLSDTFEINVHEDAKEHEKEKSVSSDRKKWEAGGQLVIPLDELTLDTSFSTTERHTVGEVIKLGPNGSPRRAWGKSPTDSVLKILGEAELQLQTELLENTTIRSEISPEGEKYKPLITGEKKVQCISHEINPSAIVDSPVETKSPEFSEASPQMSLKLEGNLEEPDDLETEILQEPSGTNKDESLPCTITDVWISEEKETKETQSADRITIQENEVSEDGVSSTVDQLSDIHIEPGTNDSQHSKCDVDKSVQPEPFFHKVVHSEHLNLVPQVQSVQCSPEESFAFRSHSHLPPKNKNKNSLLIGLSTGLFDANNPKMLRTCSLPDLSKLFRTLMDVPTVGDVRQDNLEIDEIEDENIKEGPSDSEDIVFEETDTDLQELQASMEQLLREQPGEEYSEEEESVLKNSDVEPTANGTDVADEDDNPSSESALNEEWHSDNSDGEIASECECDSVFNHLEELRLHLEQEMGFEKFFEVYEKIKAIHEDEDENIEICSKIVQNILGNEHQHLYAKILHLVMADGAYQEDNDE
smiles,measurement,setting,value
"CNc1ncc2cc(-c3cc(Br)ccc3Cl)c(=O)n(CCCCN)c2n1 [compound 6, 8-(4-Aminobutyl)-6-(5-bromo-2-chlorophenyl)-2-(methylamino)pyrido[2,3-d]pyrimidin-7(8H)-one]",ΔTm at 10 µM,MARK4; read-out: dTm 6,1.7 °C
same,ΔTm at 10 µM,MAP2K7; read-out: dTm 6,0.9 °C
same,ΔTm at 10 µM,NEK1; read-out: dTm 6,-0.3 °C
"CNc1ncc2cc(-c3cc(F)ccc3F)c(=O)n(CCCCN)c2n1 [compound 5, 8-(4-Aminobutyl)-6-(2,5-difluorophenyl)-2-(methylamino)pyrido[2,3-d]pyrimidin-7(8H)-one]",ΔTm at 10 µM,MARK4; read-out: dTm MR22 (5),0 °C
same,ΔTm at 10 µM,MAP2K7; read-out: dTm MR22 (5),-0.9 °C
same,ΔTm at 10 µM,NEK1; read-out: dTm MR22 (5),0 °C
"CNc1ncc2cc(-c3ccc(-c4cccc(C)n4)cc3Cl)c(=O)n(CC3OCC(N)CO3)c2n1 (centres unmarked) [compound 2, G-5555]",dTm G-5555 (2),"MARK4; 10 µM, binder",7.7 °C
same,dTm G-5555 (2),"NEK1; 10 µM, binder",-2.2 °C
"CNc1ncc2cc(-c3ccccc3Cl)c(=O)n(CCCCN)c2n1 [compound 4, 8-(4-Aminobutyl)-6-(2-chlorophenyl)-2-(methylamino)pyrido[2,3-d]pyrimidin-7(8H)-one]",ΔTm at 10 µM,MARK4; read-out: dTm MR21 (4),3 °C
same,ΔTm at 10 µM,MAP2K7; read-out: dTm MR21 (4),1.1 °C
same,ΔTm at 10 µM,NEK1; read-out: dTm MR21 (4),0.1 °C
"CNc1ncc2cc(-c3cc(Br)ccc3Cl)c(=O)n(C[C@H]3OC[C@H](N)CO3)c2n1 [compound 7, 8-(((2r,5r)-5-Amino-1,3-dioxan-2-yl)methyl)-6-(5-bromo-2-chlorophenyl)-2-(methylamino)pyrido[2,3-d]pyrimidin-7(8H)-one]",ΔTm at 10 µM,MARK4; read-out: dTm 7,0.8 °C
same,ΔTm at 10 µM,MAP2K7; read-out: dTm 7,0.1 °C
same,ΔTm at 10 µM,NEK1; read-out: dTm 7,0.1 °C
